Counter-ions that a name gives are not always drawn.

Sequence of recombinant human tau 4R2N (P10636 other isoform, or with tags, fused parts or gaps): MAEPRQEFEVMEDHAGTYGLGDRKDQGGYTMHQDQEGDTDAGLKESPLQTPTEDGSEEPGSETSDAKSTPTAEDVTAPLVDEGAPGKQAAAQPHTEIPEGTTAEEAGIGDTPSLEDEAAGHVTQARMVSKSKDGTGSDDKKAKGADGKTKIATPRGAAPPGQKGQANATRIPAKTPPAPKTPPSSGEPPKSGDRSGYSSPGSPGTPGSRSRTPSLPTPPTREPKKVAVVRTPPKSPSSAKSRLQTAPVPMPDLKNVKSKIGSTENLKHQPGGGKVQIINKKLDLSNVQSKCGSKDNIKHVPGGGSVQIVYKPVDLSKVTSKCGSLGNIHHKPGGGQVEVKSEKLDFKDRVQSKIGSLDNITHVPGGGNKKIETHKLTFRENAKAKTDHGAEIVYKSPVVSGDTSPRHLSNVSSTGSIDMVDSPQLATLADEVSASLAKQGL

The test has as its target recombinant human tau 4R2N (Homo sapiens (Human), UniProt P10636). Nature of the test: Confirmatory Assay (CONFA), SDS-PAGE quantification of tau monomer and oligomers. Type of test: biochemical. The conditions noted are these: tau target 300 nM, Tris-HCl pH 7.4, room temperature 3 hours, compound 0.098 uM-50 uM. The method, then:
Bacterial recombinant human tau 4R2N (the largest isoform of tau in the central nervous system, 441 amino acids in length, Seq ID 1) constructs with either 6×-His or StrepII N-terminal epitope tags were purified from bacterial lysate using denaturing conditions to prepare tau in its monomeric form.
CONFA Assay: Confirmatory Assay (CONFA) used as a secondary screen for confirming the mechanism of action of compounds identified as hits using the ALA assay. The assay is performed using a similar procedure as ALA except that it utilizes SDS-PAGE for visualization and quantification of tau monomer and aggregated species (dimer, trimer, tetramer, pentamer, etc.). Only a single construct of tau without epitope tags is necessary, but the assay can use the same target prepared for the ALA assay also.
For the CONFA assay, Tau target (300 nM) was prepared in buffer (Tris-HCl pH 7.4) and was incubated at room temperature for 3 hours with vehicle control (DMSO) and a dose range of a compound of the disclosure (0.098 uM-50 uM). Samples were mixed with an equal volume of 2×SDS sample buffer (4% SDS, 20% glycerol, 0.004% bromphenol blue, 125 mM Tris HCl, pH 7.0) to resolve tau monomer and disulfide-finked oligomers on 4-20% gradient polyacrylamide gels (Biorad) along with positive control (non-oligomerized tau target). The gels were stained with Oriole Fluorescent Gel Stain (BioRad) and imaged using the FluorChem R system (Protein Simple). AlphaView software (Protein Simple) was used for quantification of tau monomer and oligomers.
Turning to `COc1ccc(-c2ccc3oc(CCC(C)=O)c(-c4ccc(C)o4)c3c2)cn1` [Ex. 2, 4-(5-(6-Methoxypyridin-3-yl)-3-(5-methylfuran-2-yl)benzofuran-2-yl)butan-2-one], the IC50 was found to be 4.27 µM.
To `CC(=O)CCc1oc2ccc(-c3cccnc3)cc2c1-c1ccc(C)o1` [Ex. 3, 4-(3-(5-Methylfuran-2-yl)-5-(pyridin-3-yl)benzofuran-2-yl)butan-2-one] belongs 37.1 µM; to `CC(=O)CCc1oc2ccc(-c3cccc(O)c3)cc2c1-c1ccc(C)o1` [Ex. 4, 4-(5-(3-Hydroxyphenyl)-3-(5-methylfuran-2-yl)benzofuran-2-yl)butan-2-one], 24.1 µM.
With `COc1cccc(-c2ccc3oc(CCC(C)=O)c(-c4ccc(C)o4)c3c2)c1` [Ex. 5, 4-(5-(3-Methoxyphenyl)-3-(5-methylfuran-2-yl)benzofuran-2-yl)butan-2-one], the IC50 came to 0.364 µM.
The result for `CC(=O)CCc1oc2ccc(-c3cccs3)cc2c1-c1ccc(C)o1` [Ex. 8, 4-(3-(5-Methylfuran-2-yl)-5-(thiophen-2-yl)benzofuran-2-yl)butan-2-one] reads 5.57 µM; that for `Cc1ccc(-c2c(CCC(=O)O)oc3ccc(Br)cc23)o1` [Ex. 12, 3-[5-Bromo-3-(5-methyl-furan-2-yl)-benzofuran-2-yl]-propionic Acid], 22.5 µM; that for `Cc1ccc(-c2c(CCC(=O)N3CCC(O)CC3)oc3ccc(Br)cc23)o1` [Ex. 13, 3-[5-Bromo-3-(5-methyl-furan-2-yl)-benzofuran-2-yl]-1-(4-hydroxy-piperidin-1-yl)-propan-1-one], 3.23 µM.
To `Cc1ccc(-c2c(CCC(C)(C)O)oc3ccc(Br)cc23)o1` [Ex. 15, 4-(5-Bromo-3-(5-methylfuran-2-yl)benzofuran-2-yl)-2-methylbutan-2-ol] belongs 1.32 µM; to `Cc1ccc(C(C)(O)CCc2oc3ccc(Br)cc3c2-c2ccc(C)o2)cc1` (stereo not shown) [Ex. 16, 4-(5-Bromo-3-(5-methylfuran-2-yl)benzofuran-2-yl)-2-p-tolylbutane-2-ol], 1.31 µM.
To `CC(=O)CCc1oc2cc(-c3ccncc3)ccc2c1-c1ccc(C)o1` [Ex. 22, 4-(3-(5-Methylfuran-2-yl)-6-(pyridin-4-yl)benzofuran-2-yl)butan-2-one] belongs 7.57 µM; to `COc1cc(-c2ccc3c(-c4ccc(C)o4)c(CCC(C)=O)oc3c2)ccn1` [Ex. 23, 4-(6-(2-Methoxypyridin-4-yl)-3-(5-methylfuran-2-yl)benzofuran-2-yl)butan-2-one], 7.18 µM.
Regarding `CC(=O)CCc1oc2cc(-c3cccnc3)ccc2c1-c1ccc(C)o1` [Ex. 24, 4-(3-(5-methylfuran-2-yl)-6-(pyridin-3-yl)benzofuran-2-yl)butan-2-one], the 50% inhibitory concentration (IC50) is 11.8 µM.
To `COc1ccc(-c2ccc3c(-c4ccc(C)o4)c(CCC(C)=O)oc3c2)cn1` [Ex. 28, 4-(6-(6-Methoxypyridin-3-yl)-3-(5-methylfuran-2-yl)benzofuran-2-yl)butan-2-one] belongs 17.5 µM; to `CC(=O)CCc1oc2ccc(-c3cncnc3)cc2c1-c1ccc(C)cc1` [Ex. 29, 4-(5-(pyrimidin-5-yl)-3-p-tolylbenzofuran-2-yl)butan-2-one, di HCl Salt], 7.38 µM.
To `CC(=O)CCc1oc2cc(-c3cncnc3)ccc2c1-c1ccc(C)o1` [Ex. 30, 4-(3-(5-methylfuran-2-yl)-6-(pyrimidin-5-yl)benzofuran-2-yl)butan-2-one, di HCl Salt] belongs 20.4 µM; to `CC(=O)CCc1oc2cc(-c3cccnc3)ccc2c1-c1ccc(F)cc1` [Ex. 31, 4-(3-(4-fluorophenyl)-6-(pyridin-3-yl)benzofuran-2-yl)butan-2-one HCl Salt], 9.28 µM.

For orientation: IC50 means the point on the concentration scale where inhibition reaches its midpoint.

Values taken from patent US11306075B2, “Benzofuran, benzothiophene, and indole analogs that inhibit the formation of tau oligomers and their method of use” (OLIGOMERIX INC., priority 2016, dated 2022).
